Data: patent publication US7572454B2, “T helper cell epitopes” (priority 1999, dated 2009)
Marks after values point to notes of the source that are not given here. Ends that are not written are not given here.

Assays:
[1] = tested on: PBMCs from dogs immunised with CDV; assay: T-cell proliferation after in vitro stimulation of PBMC with peptide pools, tested with autologous APCs and single peptides; format: cell-based, dog
Experimental: An alternate strategy was used to increase the precursor frequency of specific T cells recognising the CDV peptides. Fresh PBMCs obtained from these hyperimmunised dogs were subjected to stimulation in vitro with pools of all 94 peptides for 30 minutes at 37° C. The cells were then washed to remove any excess peptides and cultured for 7 days. This population of T cells was then tested with autologous APCs with every single peptide as the antigen.
To confirm this observation, the same four dogs were bled again, five weeks after receiving the dose of killed virus. The PBMCs were stimulated in vitro with pools of either all 94 peptides or peptides 21-40 (because most of the activity was in this region) and after 7 days of culture the stimulated T cells were tested against individual peptides. Significant stimulatory indices were obtained with all peptides, confirming the above results. Four more dogs which received only one dose of 3 in 1 vaccine were tested using the in vitro stimulation method and all four dogs responded to the majority of peptides shown in Table 2.
Once again the same peptides and one additional peptide P32 were tested on cells from additional dogs.

LHRH [2] = assay: Trial K9-8: antibody response to LHRH by ELISA; format: in vivo, dog; details: for antibody responses to LHRH: Trial K9-8, T-cell-LHRH constructs named by their T-cell epitope
Experimental: A total of 35 dogs mixed sex were used in this trial. All had been previously vaccinated with a live CDV vaccine but had not been vaccinated against LHRH.
The T-Helper epitopes were linked to a truncated form of LHRH, containing amino acids 2 to 10 of the native 10 amino acid sequence, as shown below:
All vaccines were formulated as for Example 2, ie each 1 mL dose of vaccine contained 40nmoles of peptide, 150 μg Iscomatrix™, and thiomersal as preservative.
Where dogs were vaccinated with a pool of peptides, the concentration of each peptide was adjusted to give equal concentrations and a total amount of 40 nmoles of LHRH epitope per 1 mL dose.
All dogs were vaccinated with a 1 mL dose, delivered in the scruff of the neck. Vaccinations were given at 0 and 4 weeks and venous blood samples were obtained at intervals during the trial.
Effective T-cell help was determined by measuring the antibody response to LHRH by ELISA. Biological effectiveness of the peptide based vaccine was determined by measuring the levels of progesterone in female dogs and testosterone in male dogs.

[3] = tested on: PBMCs obtained from dogs immunised with peptide vaccines; assay: In vitro T cell proliferation assay without enrichment, PBMCs of peptide-vaccinated dogs against Th-epitope and truncated versions; format: cell-based, dog; details: dogs of Example 2 immunised with the respective Th-epitope-LHRH; FIGS. 2-4
Experimental: The assay was carried out without the enrichment of PBMCs. PBMCs obtained from Ficoll gradient purification were directly tested against the respective Th-epitope and its truncated versions. […] Truncated versions of the respective Th-epitopes were also tested to more closely define the T-cell activity within the sequences. […] This implies that the T-cell activity is towards the N-terminus or middle of the 17-residue peptide.

LHRH [4] = assay: Trial K9-5: antibody response to LHRH by ELISA; format: in vivo, dog
LHRH [5] = assay: Trial in BALB/c mice: antibody response to LHRH by ELISA; format: in vivo; details: for antibody titres to LHRH: BALB/c mice
Experimental: The canine vaccines with CDV-F derived Th-epitopes and LHRH used in Example 3 were also used to immunise BALB/c mice to investigate if the Th-epitopes would be functional in a different animal species.
All vaccines were formulated as for Example 3 except that they were diluted further so that 100 μl doses contained 2.7 nmoles of peptide and 10 μg of Iscomatrix™ and thiomersol as preservative.
Mice were vaccinated with 100 μl of the vaccine at the base of tail. Vaccinations were given at 0 and 4 weeks and animals bled at intervals after each vaccination from the retro-orbital plexus. Effective T-cell help was determined by measuring the antibody response to LHRH by ELISA.

[6] = Table 1, Beagle Foxhound (Dog #18), hyperimmunised, PBMC stimulated with pool of all 94 peptides, 7 days culture
[7] = Table 1, Beagle Foxhound (Dog #19)
[8] = Table 1, Beagle Foxhound (Dog #20)
[9] = Table 1, Beagle Foxhound (Dog #21)
[10] = Table 2, Beagle Foxhound (Dog #71), one dose of 3 in 1 vaccine
[11] = Table 2, Beagle Foxhound (Dog #72), one dose of 3 in 1 vaccine
[12] = Table 2, Beagle Foxhound (Dog #73), one dose of 3 in 1 vaccine
[13] = Table 3, Kelpie Foxhound (Dog #125)
[14] = Table 3, Kelpie Foxhound (Dog #126)
[15] = 2 weeks post second vaccination, Mouse 1
[16] = 2 weeks post second vaccination, Mouse 2
[17] = 2 weeks post second vaccination, Mouse 3
[18] = 2 weeks post second vaccination, Mouse 4
[19] = 4 weeks post first vaccination, Mouse 1, 2.7 nmoles peptide, base of tail
[20] = 4 weeks post first vaccination, Mouse 2
[21] = 4 weeks post first vaccination, Mouse 3
[22] = 4 weeks post first vaccination, Mouse 4

Substance | Stimulatory index [1, 6] | Stimulatory index [1, 7] | Stimulatory index [1, 8] | Stimulatory index [1, 9] | Stimulatory index [1, 10] | Stimulatory index [1, 11] | Stimulatory index [1, 12] | Stimulatory index [1, 13] | antibody responses to LHRH (LHRH [2]) | Stimulation indices to Th-epitope and its truncated versions [3] | Stimulatory index ([1]; Table 5, Border Collie) | Stimulatory index ([1]; Table 5, Fox Terrier) | Stimulatory index ([1]; Table 5, Grey hound) | Stimulatory index ([1]; Table 5, Kelpie Pointer) | Stimulatory index ([1]; Table 5, Poodle Shitzu) | Stimulatory index ([1]; Table 5, Terrier Cross) | antibody titres to LHRH (LHRH [5]) | other results
AELGEYEKLLNSVLEPI (canine distemper virus; synthetic peptide from canine distemper virus fusion protein (CDV-F) designated peptide P27) | 3.3 | 34 | 6.7 | 14.8 | 2.7 | 3.5 | 4.8 | 4.5 | Strong antibody responses | the 17 residue long peptide was a better simulator than the 15-mer |  |  |  |  |  |  |  | Stimulatory index [1, 14]: 8.5
ALNNRFQIKGVELKS-(NANP)3 (ALNNRFQIKGVELKSNANPNANPNANP; synthetic control peptide) |  |  |  |  |  |  |  |  |  |  |  |  |  |  |  |  |  | Anti LHRH Titres, 2 wks post boost, Average (LHRH [4]; group average): 1978; Anti LHRH Titres, 6 wks post boost, Average (LHRH [4]; group average): 1941; Anti LHRH Titres, Prebleeds, Average (LHRH [4]; group average): 1794; Anti LHRH Titres, 2 wks post boost, Range (LHRH [4]; group range): 1975-1982; Anti LHRH Titres, 6 wks post boost, Range (LHRH [4]; group range): 1936-1947; Anti LHRH Titres, Prebleeds, Range (LHRH [4]; group range): 1258-2559
KLIPNASLIENCTKAEL (canine distemper virus; synthetic peptide from canine distemper virus fusion protein (CDV-F) designated peptide P25) | 3.2 | 11.9 | 4.5 | 17 | 2.9 | 2 | 12 |  | Strong antibody responses | the full sequence of 17 residues was better than the shorter peptides of 15 and 12 residues | <2 | 2.6 | <2 | 2.6 | <2 | <2 |  | Stimulatory index ([1]; Table 2, Beagle Foxhound (Dog #70), one dose of 3 in 1 vaccine): 1.5
P8-LHRH: T-helper epitope P8 linked to truncated LHRH, amino acids 2 to 10 (SEQ ID NO: 29) (HWSYGLRPG; not fully specified (N-terminus); ends and bridges not checked; also: linked to T-helper epitope P8; listed as Homo sapiens) [Peptide P8-LHRH] |  |  |  |  |  |  |  |  | Low to undetectable antibody responses |  |  |  |  |  |  |  |  | Anti-LHRH antibody titre (LHRH [5]; [15]): <100; Anti-LHRH antibody titre (LHRH [5]; [16]): <100; Anti-LHRH antibody titre (LHRH [5]; [17]): <100; Anti-LHRH antibody titre (LHRH [5]; [18]): <100; Anti-LHRH antibody titre (LHRH [5]; [19]): <100; Anti-LHRH antibody titre (LHRH [5]; [20]): <100; Anti-LHRH antibody titre (LHRH [5]; [21]): <100; Anti-LHRH antibody titre (LHRH [5]; [22]): <100
P35-LHRH: T-helper epitope P35 linked to truncated LHRH, amino acids 2 to 10 (SEQ ID NO: 29) (HWSYGLRPG; not fully specified (N-terminus); ends and bridges not checked; also: linked to T-helper epitope P35; listed as Homo sapiens) [Peptide P35-LHRH] |  |  |  |  |  |  |  |  |  |  |  |  |  |  |  |  |  | Anti-LHRH antibody titre (LHRH [5]; [15]): 1,412; Anti-LHRH antibody titre (LHRH [5]; [16]): 800; Anti-LHRH antibody titre (LHRH [5]; [17]): <100; Anti-LHRH antibody titre (LHRH [5]; [18]): <100; Anti-LHRH antibody titre (LHRH [5]; 2 weeks post second vaccination, Mouse 5): <100; Anti-LHRH antibody titre (LHRH [5]; [19]): <100; Anti-LHRH antibody titre (LHRH [5]; [20]): <100; Anti-LHRH antibody titre (LHRH [5]; [21]): <100; Anti-LHRH antibody titre (LHRH [5]; [22]): <100; Anti-LHRH antibody titre (LHRH [5]; 4 weeks post first vaccination, Mouse 5): <100; antibody response to the B-cell epitope (LHRH) (LHRH [4]; Trial K9-5, text): strong antibody responses; Anti LHRH Titres, 2 wks post boost, GMT (LHRH [2]; group GMT): 103085; Anti LHRH Titres, 4 wks after primary, GMT (LHRH [2]; group GMT): 2469; Anti LHRH Titres, 4 wks post boost, GMT (LHRH [2]; group GMT): 58002
PRYIATNGYLISNFDES (canine distemper virus; synthetic peptide from canine distemper virus fusion protein (CDV-F) designated peptide P62) | <2 | 51 | 5.6 | 4.2 | 3 |  |  | 2.4 | Strong antibody responses |  | <2 | <2 | <2 | <2 | 24 | <2 | undetectable levels | 
SPDKLLTFIASDTCPLV (canine distemper virus; synthetic peptide from canine distemper virus fusion protein (CDV-F) designated peptide P75) |  |  |  |  |  |  |  |  | Strong antibody responses |  | <2 | <2 | <2 | <2 | 10 | <2 | low antibody titres | Stimulatory index ([1]; Table 4, Beagle Foxhound #18): 2.5; Stimulatory index ([1]; Table 4, Beagle Foxhound #21): 7.2; Stimulatory index ([1]; Table 4, Poodle Shitzu): 10; reaction with peripheral blood mononuclear cells ([1]; dogs of various breeds immunised with CDV): react strongly
SSKTQTHTQQDRPPQPS (canine distemper virus; synthetic peptide from canine distemper virus fusion protein (CDV-F) designated peptide P2) | 2* | <2 | 8 | 3.9 |  |  |  |  | Low to undetectable antibody responses |  | 2 | <2 | <2 | 2.6 | 140 | <2 | undetectable levels | 
TAAQITAGIALHQSNLN [Peptide P35] | 3.1 | 57 | 3.3 | 22 |  | 1.7 | 6.8 | 3.8 | Strong antibody responses | the other three dogs responded as well to the 12 residue peptide as to the full length 17 residue one | 2 | 2.2 | <2 | 2 | <2 | <2 | low antibody titres | Stimulatory index [1, 14]: 10
